Results reported in patent US6436705B1, “Shape stabilized erythrocytes” (The United States of America as represented by the …, priority 1997, dated 2002).

Legend:
Human erythrocytes = assay: Osmotic fragility test; format: cell-based; details: 5 mM DTBP
Method: An osmotic fragility test (a common clinical test) was performed on erythrocytes cross-linked with 5 mM DTBP for different incubation times and on erythrocytes cross-linked and reversed with DTT. Briefly, 1 ml of the erythrocyte suspension was taken out at regular incubation times, centrifuged, and DTBP or DTT was removed (Eppendorf centrifuge for 3 min at 3000×g). 1 ml of solutions containing buffered sodium sodium chloride at different concentrations (from 1% to 0.1% NaCl in phosphate buffer) were added to the packed cells. After 30 min the samples were centrifugated (Eppendorf centrifuge for 3 min at 3000×g), and the supernatants were processed for hemolysis measurements.

Red blood cells = assay: Deformability measurements with an ektacytometer (Shear-scan, Osmo-scan); format: cell-based, human; details: 5 mM DTBP for 1 h
Method: Red blood cells were cross-linked with 5 mM DTBP for 1 h. Cross-linking was reversed with 10 mM DTT for 20 min. Deformability measurements were made with fresh untreated, cross-linked, and reversed cells as well as with untreated packed cells stored in CPDA-1 for 6 weeks at 4° C. The effects of cross-linking and reversal on red blood cell deformability were measured with an ektacytometer (Technicon).
The ektacytometer is a laser diffraction viscometer described in detail by Bessiss and Mohandas. Intact red blood cells and ghosts suspended in solution produce a diffuse circular laser diffraction pattern. The instrument takes advantage of the fact that when a shear force is applied to the solution crossing the beam the cells align in the direction of shear and begin deforming into uniformly oriented ellipsoids. The laser diffraction pattern then takes on an ellipsoidal shape oriented 90° from the major elliptical cell axis, with the ratio of the long axis to the short axis length determined by the degree of cell deformation. A signal proportional to mean cellular ellipticity is derived from photometric measurement of this laser diffraction pattern in the two axis directions and is designated the deformability index (DI).
Two types of deformability profiles were generated in the present experiments. […] Shear-scans were run with 40 μl of concentrated cell suspension (80% hematocrit) mixed with 3.0 ml of 3.1% (w/v) polyvinylpyrrolidone (P, av-MW 360 kD) solution containing 138 mM NaCl, 6.34 mM Na2HPO4, 2 mM NaH2PO4, and 0.04% (w/v) NaN3 with pH=7.35±0.05, osmolality=290 mOsmol/kg (by freezing point depression), and viscosity=20 cp (assumed). Osmo-scans were run by continuous addition of this suspension medium containing 100 μl of cells to a PVP solution with a graded salt concentration. Salt gradients were made by addition of high salt PVP solution with 386 mM NaCI (osmolality=750 mOsmol/kg) to a low salt PVP solution with 2.5 mM NaCl (osmolality=40 mOsmol/kg). Conductance measurements of the cell suspension in the viscometer provided an indirect measure of osmolality, which was calculated from a standard calibration curve.
Data was recorded onto a computer, and curves were fitted and plotted using custom routines in Matlab (The Math Works Inc, Natick, Mass.). Shear scans were fitted with a polynomial of degree 6 from which the maximum DI (DImax) was calculated. Osmo-scans were fitted with a running average, and DImax was calculated within the range of 180-240 mOsmol/Kg, along with the osmolality corresponding to 1/2DImax at hypertonic salt concentrations (0′), where DI decreases with increasing intracellular viscosity secondary to cell shrinkage and increased hemoglobin concentration (see Mohandas et al., J. Clin. Invest. 66563-73(1980)). The osmolality corresponding to the minimum DI (Omin) at hypotonic salt concentrations, where DI falls due to cell swelling, was also calculated. The height of the small DI peak thought to be associated with the sudden availability of excess membrane for deformation as intracellular ions and water are lost in the lower range of hypotonic salt (63-125 mOsmol/Kg) concentrations was also recorded (see Clark et al., Blood 61 899-910 (1983)).

erythrocytes = assay: Assay of capacity for shape change (LPC-induced echinocytosis, microscopy); format: cell-based, human; details: 5 mM DTBP for 1 h, then 10 μg/ml LPC
Method: Microscopy. Cross-linked and reversed cells were prepared as described in the section on erythrocyte preparation, etc., with the addition of 0.5% bovine serum albumin to the solution prior microscopic examination. Cells were examined using an Nikon Optiphot, equipped with PlanApo 20×objective.
Assay of capacity for shape change. To induce echinocytosis ([…]), erythrocytes were incubated with 10μg/ml LPC for 2 min at room temperature. Erythrocytes were pretreated with 5 mM DTBP for 1 h and then subjected to 10 μg/ml LPC treatment. Microscopic examination of cell morphology was performed. Erythrocytes were pretreated with 5 mM DTBP for 1 h, reversed with 10 mM DTT for 20 min and then subjected to 10 μg/ml LPC treatment. Microscopic examination followed. Erythrocyte response to LPC of normal, cross-linked and reversed cells was compared.

Question: Which results are given for COC(=N)CCSSCCC(=N)OC [DTBP, Dimethyl-3,3′-dithiobispropionimidate]?
Answer: NaCl concentration at which hemolysis started (Human erythrocytes; 1 h cross-linked cells): 0.4 % NaCl; NaCl concentration at which total lysis was first measured (Human erythrocytes; 1 h cross-linked cells): 0.1 % NaCl; NaCl concentration at which hemolysis started (Human erythrocytes; 3 h cross-linked cells): 0.30 % NaCl; NaCl concentration at which total lysis was first measured (Human erythrocytes; 3 h cross-linked cells): 0.0 % NaCl; DImax (Red blood cells; Osmo-scan): 0.30; Omin (osmolality corresponding to the minimum DI) (Red blood cells; Osmo-scan): 125 mOsmol/Kg; O′ (osmolality corresponding to 1/2DImax at hypertonic salt) (Red blood cells; Osmo-scan): 264 mOsmol/Kg; reduction of DImax (Red blood cells; Osmo-scan, FIG. 7): 36%; reduction of red cell deformability as a function of shear stress (Red blood cells; Shear-scan, FIG. 6): over half; effect on LPC-induced echinocytosis (erythrocytes): completely blocked
